From patent US9181588B2, “Methods of treating breast cancer with taxane therapy” (The University of Utah Research Foundation, priority 2011, dated 2015) come the findings set out here.

The subject of this test is node-positive breast cancers. Put plainly: GEICAM/9906 randomized phase III adjuvant trial, FEC versus FEC-P: overall and disease-free survival, by PAM50 proliferation score. It counts as in vivo, human. The conditions noted are these: FEC-P vs. FEC; lowest quartile of 11-gene proliferation score. On the procedure: The primary endpoint of the […]/9906 clinical trial was disease-free survival. Secondary endpoints were: (a) overall survival; (b) prognostic and predictive value of molecular/genomic markers and (c) safety. The study was performed in accordance with the Declaration of Helsinki, approved by the ethics committees at all participating institutions and the Spanish Health Authority, and it was registered at www.clinicaltrials.gov (identifier code: NCT00129922). All patients provided written informed consent for therapy randomization and molecular analyses. […] Samples were gene expression profiled using the previously described RT-qPCR assay and analyzed using the clinical algorithm for subtype prediction (Parker et al., J Clin Oncol 27:1160-1167, 2009; Amp Laboratories: PAM50 Breast Cancer Intrinsic Classifier Information. at the World Wide Web (www) aruplab.com/Lab-Tests/General-Oncology/PAM50/index.jsp). […] In addition to the subtype classification, a PAM50proliferation score was calculated using the previously described 11-gene signature (BIRC5, CCNB1, CDC20, CDCA1, CEP55, KNTC2, MKI67, PTTG1, RRM2, TYMS, UBE2C) (Nielsen et al., Clin Cancer Res 16(21):5222-32, 2010). The significance of proliferation was evaluated using a classification into quartiles, and using the proliferation scores as a continuous variable. […]

Molecules are shown by their SMILES.

In the case of `CC(=O)O[C@H]1C(=O)[C@@]2(C)[C@H]([C@H](OC(=O)c3ccccc3)[C@]3(O)C[C@H](OC(=O)[C@H](O)[C@@H](NC(=O)c4ccccc4)c4ccccc4)C(C)=C1C3(C)C)[C@]1(OC(C)=O)CO[C@@H]1C[C@@H]2O` [paclitaxel], the “HR for OS, low proliferation score” value stood at 0.232.
